Laboratory results published in ChEMBL document CHEMBL1133289, “The binding of cocaine to cyclodextrins” (Bioorg Med Chem Lett, 2000).

Key:
[1] = Binding constant towards Beta-cyclodextrin
[2] = Binding constant towards alpha-cyclodextrin
[3] = (§1) Binding constant towards Beta-cyclodextrin at pH 7.4 in unbuffered water at 25 C in a one-to-one complex
[4] = as §1; remark: listed apart in the source
[5] = Binding constant towards gamma-cyclodextrin

## CN1[C@@H]2CC[C@H]1C[C@H](OC(=O)c1ccccc1)C2 (stereo in doubt; 8)
[1]
  Binding constant: 1120 M⁻¹

## CN1[C@@H]2CC[C@H]1C[C@H](OC(=O)c1ccccc1)C2 (stereo in doubt; 9)
[1]
  Binding constant: 500 M⁻¹

## COC(=O)[C@H]1[C@@H](OC(=O)c2ccccc2)C[C@@H]2CC[C@H]1N2C [COCAINE]
[2]
  Binding constant: < 60 M⁻¹
[3]
  Binding constant: 570 M⁻¹
[4]
  Kd: 1.75 mM
[5]
  Binding constant: < 60 M⁻¹
